Values quoted from earlier work as cited in US11058672B2, “Pharmaceutical compositions and methods for producing low impurity concentrations of the same” (Chiesi Farmaceutici S.p.A., priority 2008, dated 2021).

For CCCC(=O)OCOC(=O)C1=C(C)NC(C)=C(C(=O)OC)C1c1cccc(Cl)c1Cl (stereo not shown) [Clevidipine, butyroxymethyl methyl 4-(2′,3′-dichlorophenyl)-1,4-dihydro-2,6-dimethyl-3,5-pyridinedicarboxylate], the solubility in water is listed as “practically insoluble”.
